From patent US20070231296A1, “Method of Combating Fruit Flies” (priority 2004, published 2007)

Key:
Bactrocera tryoni = assay: Large field cage trial with a paper mâché block containing fipronil plus Cue-lure; format: in vivo; conditions: field cage 4×4×2.5 m, single paper mâché block with 20 milligrams of fipronil plus Cue-lure per cage
Description: In a large field cage (4×4×2.5 m) trial, a single block of paper mâché containing 20 milligrams of fipronil plus Cue-lure was used per cage.
After 2 days of exposure, over 90% mortality of male and female Bactrocera tryoni was achieved, after 3 days even over 95% mortality of males and females.
Dead females were collected from the floor of the cage and dissected.

fruit flies = assay: Contact of male fruit flies with AMULET parapheromone stations and transfer to females; format: in vivo; conditions: AMULET station, 20 mg fipronil per station; depending on length of contact
Description: AMULET™ parapheromone stations use fipronil at a very low concentration (20 mg per station) that has no repulsion to male flies landing on the device allowing them to freely imbibe from its surface and walk over it for long periods. Female fruit flies of the same species are not attracted by the pheromone and do no show any interest in the stations.
Through this contact they contaminate the integument of the female that subsequently dies the following day.

N#Cc1nn(-c2c(Cl)cc(C(F)(F)F)cc2Cl)c(N)c1[S+]([O-])C(F)(F)F (stereo not drawn) [fipronil]
mortality of male and female Bactrocera tryoni (Bactrocera tryoni; after 2 days of exposure): over 90%
mortality of males and females (Bactrocera tryoni; after 3 days): over 95%
time after contact until male fruit flies die (fruit flies): 3 to 48 h
